Results from paper PMC4167698, “Fatty Acid Esters of Phloridzin Induce Apoptosis of Human Liver Cancer Cells through Altered Gene Expression” (PLoS ONE, 2014).

How the values were obtained:
MDA-MB-231 cells = assay: MTS cell proliferation assay, MDA-MB-231; assay type: cell-based, human; conditions: MTS
Experimental: (§1) Cell viability was determined by using the MTS assay. In brief, HepG2 cells (5×10^3 cells/100 µL/well), MDA-MB-231 (5×10^3 cells/100 µL/well), THP-1 (25×10^3/100 µL/well), normal human and rat hepatocytes (1×10^4 cells/100 µL/well) were plated in triplicate, in a 96 well sterile flat bottom tissue culture plates. […] Thereby, cells were exposed to various concentrations (0.1, 1, 10, 25, 50, 75, 100 µM) of each treatment. Controls consist of cells with media containing DMSO (<0.5%), test blank wells contained the test compound in media with no cells and blank wells contained media with no cells. After additional 3, 6, 12, 18 or 24 h, 20 µL of the MTS reagent in combination with the electron coupling agent, phenazine methosulfate were added to the wells and cells were incubated in a humidified incubator for 3 h. Absorbance at 490 nm (OD490) was measured by using a Flurostar Optima microplate reader (BMG Labtech, Cary, NC, USA) to obtain the number of viable cells relative to the control population. Percentage of viability of the test compound treated cells are expressed as percentage compared to control (<0.5% DMSO). […] The selective index (SI) of the fatty acid esters of phloridzin is defined as the ratio of cytotoxicity (EC50 values) on normal HP-F cells to solid cancer HepG2, MDA-MB-231 cells (SI = EC50 on HP-F cells/EC50 on solid cancer cells). Samples with SI values greater than three were considered to have high selectivity towards cancer cells.

THP-1 cells = assay: MTS cell proliferation assay, THP-1; assay type: cell-based, human; conditions: MTS
Experimental: as §1

[1] = tested on: normal human hepatocytes (HP-F); assay: MTS cell viability assay, normal human hepatocytes; assay type: cell-based; conditions: 24 h
Experimental: as §1

HepG2 cells = assay: MTS cell proliferation assay, HepG2; assay type: cell-based, human; conditions: MTS
Experimental: as §1

EC50 (THP-1 cells; Homo sapiens, THP-1, 3 h)	EC50 (THP-1 cells; Homo sapiens, THP-1, 6 h)	EC50 (THP-1 cells; Homo sapiens, THP-1, 12 h)	EC50 (THP-1 cells; Homo sapiens, THP-1, 18 h)	EC50 (THP-1 cells; Homo sapiens, THP-1, 24 h)	EC50 (MDA-MB-231 cells; Homo sapiens, MDA-MB-231, 3 h)	EC50 (MDA-MB-231 cells; Homo sapiens, MDA-MB-231, 6 h)	EC50 (MDA-MB-231 cells; Homo sapiens, MDA-MB-231, 12 h)	EC50 (MDA-MB-231 cells; Homo sapiens, MDA-MB-231, 18 h)	EC50 (MDA-MB-231 cells; Homo sapiens, MDA-MB-231, 24 h)	EC50 (HepG2 cells; Homo sapiens, HepG2, 3 h)	EC50 (HepG2 cells; Homo sapiens, HepG2, 6 h)	EC50 (HepG2 cells; Homo sapiens, HepG2, 12 h)	EC50 (HepG2 cells; Homo sapiens, HepG2, 18 h)	EC50 (HepG2 cells; Homo sapiens, HepG2, 24 h)	SMILES	EC50 ([1]; Hepatocyte)	also measured
> 100 µM	> 100 µM	> 100 µM	> 100 µM	> 100 µM	> 100 µM	> 100 µM	> 100 µM	> 100 µM	> 100 µM	> 100 µM	> 100 µM	> 100 µM	> 100 µM	> 100 µM	CC/C=C\C/C=C\C/C=C\C/C=C\C/C=C\CCCC(=O)O [EPA, eicosapentaenoic acid]	> 100 µM	–
> 100 µM	> 100 µM	> 100 µM	> 100 µM	> 100 µM	> 100 µM	> 100 µM	> 100 µM	> 100 µM	> 100 µM	> 100 µM	> 100 µM	> 100 µM	> 100 µM	> 100 µM	CCCCC/C=C\C/C=C\CCCCCCCC(=O)O [Linoleic acid, linoleic acid]	> 100 µM	–
> 100 µM	> 100 µM	> 100 µM	> 100 µM	> 100 µM	> 100 µM	> 100 µM	> 100 µM	> 100 µM	> 100 µM	> 100 µM	> 100 µM	> 100 µM	> 100 µM	> 100 µM	CCCCCCCCCCCCCCCCCC(=O)O [Stearic acid, stearic acid]	> 100 µM	–

The next lines start with the molecule.

SMILES	EC50 (THP-1 cells; Homo sapiens, THP-1, 3 h)	EC50 (THP-1 cells; Homo sapiens, THP-1, 6 h)	EC50 (THP-1 cells; Homo sapiens, THP-1, 12 h)	EC50 (THP-1 cells; Homo sapiens, THP-1, 18 h)	EC50 (THP-1 cells; Homo sapiens, THP-1, 24 h)	EC50 (MDA-MB-231 cells; Homo sapiens, MDA-MB-231, 3 h)	EC50 (MDA-MB-231 cells; Homo sapiens, MDA-MB-231, 6 h)	EC50 (MDA-MB-231 cells; Homo sapiens, MDA-MB-231, 12 h)	EC50 (MDA-MB-231 cells; Homo sapiens, MDA-MB-231, 18 h)	EC50 (MDA-MB-231 cells; Homo sapiens, MDA-MB-231, 24 h)	EC50 (HepG2 cells; Homo sapiens, HepG2, 3 h)	EC50 (HepG2 cells; Homo sapiens, HepG2, 6 h)	EC50 (HepG2 cells; Homo sapiens, HepG2, 12 h)	EC50 (HepG2 cells; Homo sapiens, HepG2, 18 h)	EC50 (HepG2 cells; Homo sapiens, HepG2, 24 h)	EC50 ([1]; Hepatocyte)	also measured
CC/C=C\C/C=C\C/C=C\C/C=C\C/C=C\C/C=C\CCC(=O)O [DHA, decosahexaenoic acid]	–	–	–	–	–	–	–	–	–	–	–	–	–	–	–	–	EC50 (MDA-MB-231 cells; MDA-MB-231, 3 h): > 100 µM; EC50 (MDA-MB-231 cells; MDA-MB-231, 6 h): > 100 µM; EC50 (MDA-MB-231 cells; MDA-MB-231, 12 h): > 100 µM; EC50 (MDA-MB-231 cells; MDA-MB-231, 18 h): > 100 µM; EC50 (MDA-MB-231 cells; MDA-MB-231, 24 h): > 100 µM; EC50 (THP-1 cells; THP-1, 3 h): > 100 µM; EC50 (THP-1 cells; THP-1, 6 h): > 100 µM; EC50 (THP-1 cells; THP-1, 12 h): > 100 µM; EC50 (THP-1 cells; THP-1, 18 h): > 100 µM; EC50 (THP-1 cells; THP-1, 24 h): > 100 µM; EC50 [1]: > 100 µM; EC50 (HepG2 cells; HepG2, 3 h): > 100 µM; EC50 (HepG2 cells; HepG2, 6 h): > 100 µM; EC50 (HepG2 cells; HepG2, 12 h): > 100 µM; EC50 (HepG2 cells; HepG2, 18 h): > 100 µM; EC50 (HepG2 cells; HepG2, 24 h): > 100 µM
COc1cccc2c1C(=O)c1c(O)c3c(c(O)c1C2=O)C[C@@](O)(C(C)=O)C[C@@H]3O[C@H]1C[C@H](N)[C@H](O)[C@H](C)O1 [Daunorubicin, daunorubicin]	48.1 ± 2.8 µM	35.2 ± 2.9 µM	12.6 ± 0.8 µM	1.4 ± 0.2 µM	0.02 ± 0.01 µM	–	–	–	–	–	–	–	–	–	–	–	–
COc1cccc2c1C(=O)c1c(O)c3c(c(O)c1C2=O)C[C@@](O)(C(=O)CO)C[C@@H]3O[C@H]1C[C@H](N)[C@H](O)[C@H](C)O1 [Doxorubicin, doxorubicin]	–	–	–	–	–	> 100 µM	> 100 µM	9.6 ± 0.2 µM	5.9 ± 0.3 µM	4.1 ± 0.1 µM	–	–	–	–	–	–	–
CCCCCCCC/C=C\CCCCCCCC(=O)O [Oleic acid, oleic acid]	> 100 µM	> 100 µM	> 100 µM	> 100 µM	> 100 µM	> 100 µM	> 100 µM	> 100 µM	> 100 µM	> 100 µM	> 100 µM	> 100 µM	> 100 µM	> 100 µM	> 100 µM	> 100 µM	–
CC/C=C\C/C=C\C/C=C\CCCCCCCC(=O)O [α-Linolenic acid, α-linolenic acid]	–	–	–	–	–	–	–	–	–	–	–	–	–	–	–	–	EC50 (MDA-MB-231 cells; MDA-MB-231, 3 h): > 100 µM; EC50 (MDA-MB-231 cells; MDA-MB-231, 6 h): > 100 µM; EC50 (MDA-MB-231 cells; MDA-MB-231, 12 h): > 100 µM; EC50 (MDA-MB-231 cells; MDA-MB-231, 18 h): > 100 µM; EC50 (MDA-MB-231 cells; MDA-MB-231, 24 h): > 100 µM; EC50 (THP-1 cells; THP-1, 3 h): > 100 µM; EC50 (THP-1 cells; THP-1, 6 h): > 100 µM; EC50 (THP-1 cells; THP-1, 12 h): > 100 µM; EC50 (THP-1 cells; THP-1, 18 h): > 100 µM; EC50 (THP-1 cells; THP-1, 24 h): > 100 µM; EC50 [1]: > 100 µM; EC50 (HepG2 cells; HepG2, 3 h): > 100 µM; EC50 (HepG2 cells; HepG2, 6 h): > 100 µM; EC50 (HepG2 cells; HepG2, 12 h): > 100 µM; EC50 (HepG2 cells; HepG2, 18 h): > 100 µM; EC50 (HepG2 cells; HepG2, 24 h): > 100 µM
